Among the data in US11590139B2, “Substituted aminopurine compounds, compositions thereof, and methods of treatment therewith” (Signal Pharmaceuticals, LLC, priority 2014, dated 2023) are IC50 values, retold here.

The first assay deals with Lox-IMVI melanoma cell line. The assay is described as follows: Lox-IMVI anti-proliferative assay (growth inhibition, Cell Titer-Glo). The conditions noted are these: Homo sapiens; IC50 activity level in the cell-based Lox-IMVI anti-proliferative assay; read-out: Activity. Format: cell-based, human. Put shortly: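 IC50 values reflect the concentration giving 50% of DMSO-control luminescence after 72 h of treatment, fitted with a four-parameter logistic model. Cells were cultured in RPMI + 10% FBS with compound from 0.5 nM to 10 μM.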
For orientation: ATP-based viability assays read luminescence as a measure of living cells.
`NC(=O)[C@H]1CC[C@@H](n2c(Nc3cc(Cl)c(Cl)cc3Cl)nc3cnc(NC4CCOCC4)nc32)CC1` [Example 65, (1s,4s)-4-(2-(tetrahydro-2H-pyran-4-ylamino)-8-(2,4,5-trichlorophenylamino)-9H-purin-9-yl)cyclohexanecarboxamide]: the IC50 was more than 1000 nM. Turning to `NC(=O)[C@H]1CC[C@@H](n2c(Nc3c(F)cccc3F)nc3cnc(N[C@H]4CCOC[C@H]4F)nc32)CC1` [Example 305, (1R,4s)-4-(8-(2,6-difluorophenylamino)-2-((3S,4S)-3-fluorotetrahydro-2H-pyran-4-ylamino)-9H-purin-9-yl)cyclohexanecarboxamide], the IC50 lay in the range of 500 to 1000 nM. On to `C[C@@H]1CC[C@@H](Nc2ncc3nc(Nc4c(Cl)cc(F)cc4Cl)n([C@H]4CC[C@@H](C(N)=O)CC4)c3n2)C[C@H]1O` [Example 355, (1S,4s)-4-(8-(2,6-dichloro-4-fluorophenylamino)-2-((1R,3R,4R)-3-hydroxy-4-methylcyclohexylamino)-9H-purin-9-yl)cyclohexanecarboxamide], for which the IC50 was more than 1000 nM. On to `Cc1ccc(Nc2nc3cnc(NC4CCOCC4)nc3n2[C@H]2CC[C@@H](C(N)=O)CC2)c(Cl)c1Cl` [Example 85, (1s,4s)-4-(8-(2,3-dichloro-4-methylphenylamino)-2-(tetrahydro-2H-pyran-4-ylamino)-9H-purin-9-yl)cyclohexanecarboxamide], for which the IC50 is more than 1000 nM. On the same count and under the same terms, the result for `CC1(C)CC[C@@H](Nc2ncc3nc(Nc4c(Cl)cccc4Cl)n([C@H]4CC[C@@H](C(N)=O)CC4)c3n2)C[C@H]1O` [Example 383, (1S,4s)-4-(8-(2,6-dichlorophenylamino)-2-((1R,3R)-3-hydroxy-4,4-dimethylcyclohexylamino)-9H-purin-9-yl)cyclohexanecarboxamide] reads more than 1000 nM; that for `NC(=O)[C@H]1CC[C@@H](n2c(Nc3c(F)cc(F)cc3F)nc3cnc(NC4COC4)nc32)CC1` [Example 55, (1s,4s)-4-(2-(oxetan-3-ylamino)-8-(2,4,6-trifluorophenylamino)-9H-purin-9-yl)cyclohexanecarboxamide], more than 1000 nM; that for `CC(C)(C)OC(=O)N1CC[C@H](Nc2ncc3nc(Nc4c(F)cc(F)cc4F)n([C@H]4CC[C@@H](C(N)=O)CC4)c3n2)[C@H](F)C1` [Example 127, (3R,4S)-tert-butyl 4-(9-((1s,4R)-4-carbamoylcyclohexyl)-8-(2,4,6-trifluorophenylamino)-9H-purin-2-ylamino)-3-fluoropiperidine-1-carboxylate], more than 1000 nM. Regarding `N#Cc1cc(F)c(Nc2nc3cnc(NC4CCC4)nc3n2[C@H]2CC[C@@H](C(N)=O)CC2)c(F)c1` [Example 368, (1s,4s)-4-(8-(4-cyano-2,6-difluorophenylamino)-2-(cyclobutylamino)-9H-purin-9-yl)cyclohexanecarboxamide], the IC50 was in the range of 500 to 1000 nM. Same read-out and setting: the value for `NC(=O)[C@H]1CC[C@@H](n2c(Nc3c(F)ccc(Cl)c3F)nc3cnc(N[C@@H]4CC[C@@H](O)C4)nc32)CC1` [Example 217, (1S,4s)-4-(8-(3-chloro-2,6-difluorophenylamino)-2-((1R,3R)-3-hydroxycyclopentylamino)-9H-purin-9-yl)cyclohexanecarboxamide] was more than 1000 nM; that for `CC(C)Nc1ncc2nc(Nc3ccc(Cl)cc3Cl)n([C@H]3CC[C@@H](C(N)=O)CC3)c2n1` [Example 96, (1s,4s)-4-(8-(2,4-dichlorophenylamino)-2-(isopropylamino)-9H-purin-9-yl)cyclohexanecarboxamide] was more than 1000 nM.

For `CC1(C)CC[C@@H](Nc2ncc3nc(Nc4c(F)cc(Cl)cc4Cl)n([C@H]4CC[C@@H](C(N)=O)CC4)c3n2)C[C@H]1O` [Example 389, (1S,4s)-4-(8-(2,4-dichloro-6-fluorophenylamino)-2-((1R,3R)-3-hydroxy-4,4-dimethylcyclohexylamino)-9H-purin-9-yl)cyclohexanecarboxamide], the IC50 is more than 1000 nM. With `NC(=O)[C@H]1CC[C@@H](n2c(Nc3c(F)cc(Cl)cc3Cl)nc3cnc(N[C@H]4C[C@@H](O)C4)nc32)CC1` [Example 324, (1s,4s)-4-(8-(2,4-dichloro-6-fluorophenylamino)-2-((1s,3s)-3-hydroxycyclobutylamino)-9H-purin-9-yl)cyclohexanecarboxamide], the IC50 is more than 1000 nM. As to `NC(=O)[C@H]1CC[C@@H](n2c(Nc3c(Cl)cc(Cl)cc3Cl)nc3cnc(NCC4(CO)CC4)nc32)CC1` [Example 205, (1s,4s)-4-(2-((1-(hydroxymethyl)cyclopropyl)methylami-no)-8-(2,4,6-trichlorophenylamino)-9H-purin-9-yl)cyclohexanecarboxamide], the IC50 is more than 1000 nM.

Consider `NC(=O)[C@H]1CC[C@@H](n2c(Nc3c(F)cc(F)cc3F)nc3cnc(N[C@H]4COC[C@@H]4O)nc32)CC1` [Example 311, (1R,4s)-4-(2-((3S,4R)-4-hydroxytetrahydrofuran-3-ylamino)-8-(2,4,6-trifluorophenylamino)-9H-purin-9-yl)cyclohexanecarboxamide], for which the IC50 was more than 1000 nM.

Staying with this assay, now noted: Homo sapiens; Lox-IMVI anti-proliferative assay, IC50 activity level; read-out: Activity.
As for `C[C@@H](CO)Nc1ncc2nc(Nc3c(Cl)cc(C#N)cc3Cl)n([C@H]3CC[C@@](C)(C(N)=O)CC3)c2n1` [Example 553, (1R,4s)-4-(8-(2,6-dichloro-4-cyanophenylamino)-2-((S)-1-hydroxypropan-2-ylamino)-9H-purin-9-yl)-1-methylcyclohexanecarboxamide], the IC50 is less than 250 nM.

On to `N#Cc1cc(Cl)c(Nc2nc3cnc(N[C@@H]4CCOC4)nc3n2[C@H]2CC[C@@H](C(N)=O)CC2)c(Cl)c1` [Example 518, (1S,4s)-4-(8-(2,6-dichloro-4-cyanophenylamino)-2-((R)-tetrahydrofuran-3-ylamino)-9H-purin-9-yl)cyclohexanecarboxamide], for which the IC50 is 250 to 500 nM. For `NC(=O)[C@H]1CC[C@@H](n2c(Nc3c(Cl)cc(F)cc3Cl)nc3cnc(NCC(F)(F)CO)nc32)CC1` [Example 452, (1s,4s)-4-(8-(2,6-dichloro-4-fluorophenylamino)-2-(2,2-difluoro-3-hydroxypropylamino)-9H-purin-9-yl)cyclohexanecarboxamide], the IC50 was more than 1000 nM.

The same assay, now with this note: Homo sapiens; Lox-IMVI melanoma cell line, anti-proliferative assay; read-out: Activity (IC50 activity level).
`C[C@]1(C(N)=O)CC[C@@H](n2c(Nc3c(F)cc(Cl)cc3Cl)nc3cnc(N[C@@H]4CCOC[C@H]4F)nc32)CC1` [Example 726, (1S,4s)-4-(8-(2,4-dichloro-6-fluorophenylamino)-2-((3S,4R)-3-fluorotetrahydro-2H-pyran-4-ylamino)-9H-purin-9-yl)-1-methylcyclohexanecarboxamide]: the IC50 was less than 250 nM. `CC1(C)COCC[C@H]1Nc1ncc2nc(Nc3c(F)cc(Cl)cc3F)n([C@H]3CC[C@@H](C(N)=O)CC3)c2n1` [Example 786, (1S,4s)-4-(8-(4-chloro-2,6-difluorophenylamino)-2-((R)-3,3-dimethyltetrahydro-2H-pyran-4-ylamino)-9H-purin-9-yl)cyclohexanecarboxamide]: the IC50 is more than 1000 nM. The same measure, in the same setting: the result for `C[C@]1(C(N)=O)CC[C@@H](n2c(Nc3c(Cl)cc(F)cc3Cl)nc3cnc(NC4CCOCC4)nc32)CC1` [Example 675, (1s,4s)-4-(8-(2,6-dichloro-4-fluorophenylamino)-2-(tetrahydro-2H-pyran-4-ylamino)-9H-purin-9-yl)-1-methylcyclohexanecarboxamide] reads less than 250 nM. Regarding `N#Cc1cc(Cl)c(Nc2nc3cnc(N[C@H]4CCC[C@H](O)C4)nc3n2[C@H]2CC[C@@H](C(N)=O)CC2)c(Cl)c1` [Example 688, (1R,4s)-4-(8-(2,6-dichloro-4-cyanophenylamino)-2-((1S,3S)-3-hydroxycyclohexylamino)-9H-purin-9-yl)cyclohexanecarboxamide], the IC50 was 250 to 500 nM. As to `C[C@]1(C(N)=O)CC[C@@H](n2c(Nc3c(F)cc(F)cc3Cl)nc3cnc(NC4CCOCC4)nc32)CC1` [Example 673, (1s,4s)-4-(8-(2-chloro-4,6-difluorophenylamino)-2-(tetrahydro-2H-pyran-4-ylamino)-9H-purin-9-yl)-1-methylcyclohexanecarboxamide], the IC50 was less than 250 nM. Regarding `Cc1ccc(S(=O)(=O)N2CCC[C@@H](Nc3ncc4nc(Nc5c(F)cc(Cl)cc5F)n([C@H]5CC[C@@H](C(N)=O)CC5)c4n3)C2)cc1` [Example 792, (1S,4s)-4-(8-(4-chloro-2,6-difluorophenylamino)-2-((R)-1-tosylpiperidin-3-ylamino)-9H-purin-9-yl)cyclohexanecarboxamide], the IC50 was more than 1000 nM. With `C[C@@H]1COCC[C@H]1Nc1ncc2nc(Nc3c(F)cc(Cl)cc3F)n([C@H]3CC[C@@](C)(C(N)=O)CC3)c2n1` [Example 722, (1S,4s)-4-(8-(4-chloro-2,6-difluorophenylamino)-2-((3S,4R)-3-methyltetrahydro-2H-pyran-4-ylamino)-9H-purin-9-yl)-1-methylcyclohexanecarboxamide], the IC50 was less than 250 nM. `CC(C)OC(=O)N1CCC[C@@H](Nc2ncc3nc(Nc4c(F)cc(F)cc4F)n([C@H]4CC[C@@H](C(N)=O)CC4)c3n2)C1` [Example 772, (R)-isopropyl 3-(9-((1s,4S)-4-carbamoylcyclohexyl)-8-(2,4,6-trifluorophenylamino)-9H-purin-2-ylamino)piperidine-1-carboxylate]: the IC50 was more than 1000 nM.

On to `N#Cc1cc(F)c(Nc2nc3cnc(N[C@@H]4CCC(O)C4)nc3n2[C@H]2CC[C@@H](C(N)=O)CC2)c(Cl)c1` (stereo partly drawn) [Example 682, (1S,4s)-4-(8-(2-chloro-4-cyano-6-fluorophenylamino)-2-((1R,3R)-3-hydroxycyclopentylamino)-9H-purin-9-yl)cyclohexanecarboxamide], for which the IC50 is less than 250 nM. For `CS(=O)(=O)C1CC(Nc2ncc3nc(Nc4c(Cl)cc(C#N)cc4Cl)n([C@H]4CC[C@@H](C(N)=O)CC4)c3n2)C1` (stereo partly drawn) [Example 730, (1s,4s)-4-(8-(2,6-dichloro-4-cyanophenylamino)-2-(3-(methylsulfonyl)cyclobutylamino)-9H-purin-9-yl)cyclohexanecarboxamide], the IC50 is more than 1000 nM.
